Data set [1] is described as follows: Action to increase the urinary excretion of calcium (2), intravenous administration. The class given is in vivo, SD male rats. Conditions: intravenous 22.4 nmol/kg; for Calcium in Urine: urine collected within 24 hours after administration; for Ratio of Calcium in Urine (to control): urine within 24 hours, test compound/control group. As to the method: The compound of the invention mentioned in Example 42, 61 or 66, or maxacalcitol in saline containing 0.1% Triton X 100/5.6% DMSO (22.4 nmol/kg) was subjected to an intravenous administration to SD male rats (7 weeks of age) Saline containing 0.1% Triton X 100/5.6% DMSO was administered to a control group. The calcium concentration in urine collected within 24 hours after the administration was measured and the urinary excretion of calcium ([calcium concentration in urine]×[amount of urine]) and the ratio of urinary excretion of calcium based on the control group ([calcium amount in urine in administration of the test compound]/[calcium amount in urine in the control group]) were calculated.

Data set [2] can be described thus: Metabolic rate in human liver microsome. The class given is in vitro ADME. The note with it: pooled human liver microsome 1 mg/mL protein, NADPH-regenerating system, 37° C., 2-60 minutes, HPLC. On the procedure:
The compounds of the invention mentioned in Examples and maxacalcitol were compared with each other with respect to the metabolic rate in human liver microsome.
As to the pooled human liver microsome (HHM-0323), those manufactured by Tissue Transformation Technologies were used. A 0.25 M potassium phosphate buffer (pH 7.4) (200 μL), 5 μL of a 250 μM solution of each compound to be tested in DMSO, 50 μL of an NADPH-regenerating system (where 20 mg of β-NADP^+, 70 mg of glucose-6-phosphate, 40 units of glucose-6-phosphate dehydrogenase and 20 mg of magnesium chloride were dissolved in 1 mL of distilled water) and 220 μL of distilled water were added to a microtube and the mixture was subjected to a preincubation for 5 minutes at 37° C. Reaction was started by an addition of 25 μL of human liver microsome (final concentration of protein: 1 mg/mL). Incubation was performed for 2, 10, 30 or 60 minutes and the reaction was stopped by an addition of 500 μL of acetonitrile. After centrifugation at 13,000 rpm for 5 minutes, each test compound in the supernatant (25 μL) was measured by HPLC under the following conditions.
Inertsil ODS-3 (4.6×150 mm; GL Science) was used as a column. With regard to the mobile phase, a solution A (acetonitrile/0.1% aqueous solution of ammonium acetate=10/90) and a solution B (acetonitrile/0.1% aqueous solution of ammonium acetate=90/10) were used under the linear gradient conditions mentioned in Tables 5 to 7. The column temperature, the flow rate and the wavelength for detection were set at 40° C., 1.0 mL/min. and UV 250 or 270 nm, respectively.
The compound mentioned in Example 38 was analyzed under the condition shown in Table 6; the compounds mentioned in Examples 55, 56, 68, 69, 72 and 73 were under the condition shown in Table 7; and the other compounds were under the condition shown in Table 5.
The compounds described in Examples 40, 43 to 48, 50, 55, 56, 58, 60, 61, 63 and 65 to 73 were analyzed under the condition of UV 250 nm; and the other compounds were under the condition of UV 270 nm.
From the HPLC test results as above, the metabolic rate of the test compound was calculated.
Background: Liver microsomes are a subcellular fraction often used to study metabolism.

The subject of data set [3] is human acute myelogenous leukemia cell line HL-60. The experiment in a line: Ability to induce differentiation of HL-60 cells (oxygen radical production after phorbol ester, WST-1). The format is cell-based. Conditions: 72 hours incubation, then WST-1 and phorbol 12,13-didecanoate for 4 hours, absorbance at 450 nm. From the text: It is known that the human acute myelogenous leukemia cell line HL-60is differentiated into neutrophil-like cells by active vitamin D or the like. Thus, the cells after the differentiation begin to express a surface marker such as CD11and CD32and, at the same time, they produce an oxygen radical by stimulation with a phorbol ester or the like. In this test, the above-mentioned property was utilized. As an index of the ability to induce differentiation of the HL-60cells, the amount of the oxygen radical produced by stimulation with a phorbol ester was measured, and the compounds of the invention mentioned in Examples were compared with maxacalcitol with respect to the vitamin D3activity thereof. In use of commercial reagents and kits, if any, the indications attached thereto were referred to.
HL-60cells (supplied from ATCC) were seeded on a 96-well plate at 5×10^3cells/100μL/well and a test compound in two-fold dilution series from 10^−7M was added to the second to the twelfth rows (maximum concentration: the second row). The first row was used for blank. After incubation for 72 hours under a moisturized condition in the presence of 5% CO2 at 37° C. using a CO2 incubator, 10 μL of PBS containing 50 mM WST-1 (manufactured by Takara Bio) and 10 μM phorbol 12,13-didecanoate (manufactured by SIGMA) were added to each well followed by further incubation for 4 hours. Absorbance (reference wavelength: […]) at […] of the WST-1 formazane dye generated by conversion from WST-1 by oxygen radical produced from the differentiated HL-60 cells was measured by a Benchmark microplate reader (manufactured by BioRad). An absorbance meter control software MPM3 (manufactured by BioRad) was used and, from a concentration-absorbance curve, the 50%-maximal effective concentration (hereinafter, referred to as “EC50”) of each was determined by a logistic curve regression.
On the technique in general: Tetrazolium assays rely on reduction of a dye to a coloured formazan, in cell work by metabolically active cells.

Data set [4] can be described thus: Action to increase the urinary excretion of calcium (1), percutaneous administration. The class given is in vivo, SD male rats. The note with it: percutaneous 10 μg/200 μL/kg/day once a day for 4 days; for Calcium in Urine within 24 hours: accumulated excretion 0 to 24 hours; for Calcium in Urine within 48 hours: accumulated excretion 0 to 48 hours; for Calcium in Urine within 72 hours: accumulated excretion 0 to 72 hours; for Calcium in Urine within 96 hours: accumulated excretion 0 to 96 hours. On the procedure: The compound of the invention mentioned in Example 1, 36, 43, 47, 48, 55 or 70 or maxacalcitol in ethanol containing 0.5% DMSO was repeatedly subjected to a percutaneous administration (10 μg/200 μL/kg/day) once a day for 4 days onto the back of SD male rats (7 weeks of age). Ethanol containing 0.5% DMSO was administered to a control group. The calcium concentration in urine collected every 24 hours was measured and multiplied by the amount of urine to calculate the urinary excretion of calcium. The calcium excretion in urine shown in Table 3 indicates the accumulated calcium excretion from 0 to 24 hours, from 0 to 48 hours, from 0 to 72 hours, and from 0 to 96 hours.

Data set [5] can be described thus: Action to increase calcium concentration in serum, percutaneous administration. The format is in vivo, SD male rats. The note with it: percutaneous 33 μg/200 μL/kg/day once a day for 7 days, blood 24 hours after final administration. As to the method: The compound of the invention mentioned in Example 1 or maxacalcitol in ethanol containing 0.3% DMSO was repeatedly subjected to percutaneous administration (33 μg/200 μL/kg/day) once a day for 7 days onto the back of SD male rats (7 weeks of age). Ethanol containing 0.3% DMSO was administered to a control group. At 24 hours after the final administration, blood was collected and the calcium concentration in serum was measured.

pEC50: −log10 of the molar value.

As a reminder, the pEC50 is the EC50 on a negative log10 scale, so that one unit is a factor of ten. Lower therefore signals a high EC50.

As for `CCC(O)(CC)CCC(=O)O[C@@H](C)[C@H]1CC[C@H]2/C(=C/C=C3C[C@@H](O)C(C)[C@H](O)C3)CCC[C@]12C` (stereo partly drawn) [Compound of Example 66, (1R,2β,3R,20S) -2-methyl-19-nor-20-[4-ethyl-4-hydroxyhexanoyloxy]-9,10-secopregna-5Z,7E-diene-1,3-diol], in data set [1], the “Calcium in Urine” value was 0.5 mg and the “Ratio of Calcium in Urine (to control)” value came to 100%. Moreover, the “Metabolic Rate” value in data set [2] was 116 pmol/min/mg.
`CCC(O)(/C=C/C(=O)O[C@@H](C)[C@H]1CC[C@H]2/C(=C/C=C3C[C@@H](O)C[C@H](O)C3)CCC[C@]12C)CC` [Compound of Example 42, (1R,3R,20S)-19-nor-20-[(2E)-4-ethyl-4-hydroxyhex-2-enoyloxy]-9,10-secopregna-5Z,7E-diene-1,3-diol] had a pEC50 in data set [3] of 8.89. In data set [1], the “Calcium in Urine” value was determined as 0.8 mg and the “Ratio of Calcium in Urine (to control)” value is given as 160%. The “Metabolic Rate” value in data set [2] is given as 34 pmol/min/mg.
In the case of `CC(OC(=O)CCC(C)(O)C(F)(F)F)C1CCC2C(=CC=C3CC(O)CC(O)C3)CCCC21C` [Compound of Example 43, (1R,3R,20S)-19-nor-20-(5,5,5-trifluoro-4-hydroxy-4-methylpentanoyloxy)-9,10-secopregna-5Z,7E-diene-1,3-diol], the pEC50 in data set [3] was 9.35. Besides, in data set [4], the “Calcium in Urine within 24 hours” value is given as 1.2 mg, the “Calcium in Urine within 48 hours” value came to 1.9 mg, the “Calcium in Urine within 72 hours” value is 3.3 mg and the “Calcium in Urine within 96 hours” value was determined as 4.6 mg. Besides, the “Metabolic Rate” value in data set [2] was 74 pmol/min/mg.
`C=C1/C(=C\C=C2/CCC[C@]3(C)[C@@H]([C@H](C)OC(=O)CCC(C)(C)O)CC[C@@H]23)C[C@@H](O)C[C@@H]1O` [Compound of Example 1, (1S,3R,20S)-20-(4-hydroxy-4-methylpentanoyloxy)-9,10-secopregna-5Z,7E,10(19)-triene-1,3-diol] had a negative logarithm of the EC50 (pEC50) in data set [3] of 8.82. In addition, the “Serum Calcium Concentration” value in data set [5] amounted to 11.8 mg/dL. For the same compound, in data set [4], the “Calcium in Urine within 24 hours” value was 0.8 mg, the “Calcium in Urine within 48 hours” value amounted to 1.4 mg, the “Calcium in Urine within 72 hours” value is 2.3 mg and the “Calcium in Urine within 96 hours” value was 3.8 mg. In addition, the “Metabolic Rate” value in data set [2] amounted to 78 pmol/min/mg.
Consider “(1S,3R,20S)-20-[(4S) or (4R)-5,5,5-trifluoro-4-hydroxy-4-methylpentanoyloxy]-9,10-secopregna-5Z,7E,10(19)-triene-1,3-diol [Compound of Example 36]”, for which, in data set [3], the pEC50 is 9.39. In data set [4], the “Calcium in Urine within 24 hours” value is recorded as 1.0 mg, the “Calcium in Urine within 48 hours” value turned out to be 1.7 mg, the “Calcium in Urine within 72 hours” value stood at 2.8 mg and the “Calcium in Urine within 96 hours” value turned out to be 4.5 mg. Moreover, the “Metabolic Rate” value in data set [2] amounted to 82 pmol/min/mg.
Compound `CC1[C@H](O)CC(=C/C=C2\CCC[C@]3(C)[C@@H]([C@H](C)OC(=O)CCC(C)(O)C(F)(F)F)CC[C@@H]23)C[C@H]1O` (stereo partly drawn) [Compound of Example 61, (1R,2β,3R,20S)-2-methyl-19-nor-20-(5,5,5-trifluoro-4-hydroxy-4-methylpentanoyloxy)-9,10-secopregna-5Z,7E-diene-1,3-diol] gave a pEC50 in data set [3] of 8.92. In data set [1], the “Calcium in Urine” value was 0.6 mg and the “Ratio of Calcium in Urine (to control)” value is given as 120%. Further, the “Metabolic Rate” value in data set [2] came out at 188 pmol/min/mg.
Turning to `C=C1[C@H](O)CC(=C/C=C2\CCC[C@]3(C)C([C@H](C)OC(=O)CC[C@](C)(O)C(F)(F)F)=CC[C@@H]23)C[C@H]1O` [Compound of Example 55, (1R,3R,20S)-19-nor-2-methylene-20-[(4S)-5,5,5-trifluoro-4-hydroxy-4-methylpentanoyloxy]-9,10-secopregna-5Z,7E,16-triene-1,3-diol], the pEC50 in data set [3] is 9.82. For the same compound, in data set [4], the “Calcium in Urine within 24 hours” value is listed as 1.1 mg, the “Calcium in Urine within 48 hours” value worked out at 2.0 mg, the “Calcium in Urine within 72 hours” value turned out to be 3.4 mg and the “Calcium in Urine within 96 hours” value is given as 4.8 mg. Besides, the “Metabolic Rate” value in data set [2] came out at 128 pmol/min/mg.
Compound `CC(OC(=O)CCC(C)(O)C(F)(F)F)C1=CCC2C(=CC=C3CC(O)CC(O)C3)CCCC12C` [Compound of Example 47, (1R,3R,20S)-19-nor-20-(5,5,5-trifluoro-4-hydroxy-4-methylpentanoyloxy)-9,10-secopregna-5Z,7E,16-triene-1,3-diol] had a pEC50 in data set [3] of 9.20. In data set [4], the “Calcium in Urine within 24 hours” value was 1.2 mg, the “Calcium in Urine within 48 hours” value stood at 1.8 mg, the “Calcium in Urine within 72 hours” value stood at 2.7 mg and the “Calcium in Urine within 96 hours” value was 3.7 mg. Also, the “Metabolic Rate” value in data set [2] was 95 pmol/min/mg.
Consider `C=C1/C(=C\C=C2/CCC[C@]3(C)C([C@H](C)OC(=O)CCC(C)(O)C(F)(F)F)=CC[C@@H]23)C[C@@H](O)C[C@@H]1O` (single isomer, unassigned) [Compound of Example 70, (1S,3R,20S)-20-[(4R) or (4S)-5,5,5-trifluoro-4-hydroxy-4-methylpentanoyloxy]-9,10-secopregna-5Z,7E,10(19),16-tetraene-1,3-diol], for which, in data set [3], the pEC50 is 9.89. Further, in data set [4], the “Calcium in Urine within 24 hours” value came to 1.4 mg, the “Calcium in Urine within 48 hours” value stood at 1.9 mg, the “Calcium in Urine within 72 hours” value was determined as 2.7 mg and the “Calcium in Urine within 96 hours” value is listed as 3.7 mg. In addition, the “Metabolic Rate” value in data set [2] came to 60 pmol/min/mg.

The record behind these values is US8796246B2, “9, 10-secopregnane derivative and pharmaceutical” (Nippon Shinyaku Co., Ltd., priority 2006, dated 2014).
